{"source": "paper PMC12029662", "about": "“Cytotoxicity Comparison of ^99mTc-Labeled Peptide Antagonist and Agonist Targeting the SSTR2 Receptor in AR42J Cells” (Molecules, 2025)", "key": {"SSTR2": {"target": "T1, SSTR2 (Rattus norvegicus, UniProt P30680)", "T1 construct": "AR-42-J cells were seeded in 6-well plates; host or cells: AR-42-J (AR42J) rat pancreatic tumour cells, intact, no transfection described", "T1 sequence (P30680 whole entry)": "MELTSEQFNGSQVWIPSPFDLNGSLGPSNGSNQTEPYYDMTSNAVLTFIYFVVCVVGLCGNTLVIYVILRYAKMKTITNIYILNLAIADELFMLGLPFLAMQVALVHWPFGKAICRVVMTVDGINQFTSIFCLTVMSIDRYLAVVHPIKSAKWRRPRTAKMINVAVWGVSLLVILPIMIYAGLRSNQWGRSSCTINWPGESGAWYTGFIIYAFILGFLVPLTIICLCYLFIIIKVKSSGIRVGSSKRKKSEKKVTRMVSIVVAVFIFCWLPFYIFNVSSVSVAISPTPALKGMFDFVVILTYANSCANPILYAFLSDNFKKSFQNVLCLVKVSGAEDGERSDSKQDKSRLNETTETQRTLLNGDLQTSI", "assay": "Saturation binding affinity assay on AR-42-J cells", "details": "for Specific binding on AR42J cells, antagonist compared with agonist: specific = total minus nonspecific binding, Figure 2", "experimental": "Figure 2 illustrates the relationship between specific binding and the concentration of the radioconjugates. In Supplementary Materials Figure S1, we included experimental data on total binding and non-specific binding in the presence of a 2000-fold excess of octreotide, which allowed us to determine specific binding.\nFollowing incubation, the cells were washed with PBS, collected into tubes and then lysed twice using 800 μL of 1 M NaOH (for 12-well plate) and 1.5 mL of 1 M NaOH (for 6-well plates). The lysates were collected in separate tubes and radioactivity was measured using Wizard2 gamma counter, PerkinElmer, Waltham, MA, USA. The lysates were transferred to separate tubes and radioactivity was quantified using Wizard2 gamma counter."}, "AR42J cells [1]": {"tested_on": "AR42J cells", "assay": "Cytotoxicity studies (MTS assay)", "text": "The properties of agonist octreotide conjugates labeled with the radionuclide ^111In have been studied in several works, primarily for imaging but also for Auger electron therapy. The ^111In not only emits gamma quanta but also produces 7.4 Auger electrons. […] In a few works, Maecke et al. also studied ^111In radioconjugates with SSTR receptor antagonists, but these studies were focused on tumor imaging and the therapeutic effect was not investigated. […] They are easily repairable and the cells could continue to divide.\nFigure 4 Cytotoxicity of ^99mTc-labeled SSTR2 receptor agonist TEKTROTYD (left graph) and antagonist TECANT-1 (right graph) for AR42J cells. The data results are expressed in mean ± standard deviation. One-way ANOVA analysis was used for multiple group comparisons, followed by Tukey’s test.\nA cytotoxicity assay was performed using the AR42J cell line. A total of 10^4 cells were seeded in 96-well plate and incubated overnight at 37 °C in a 5% CO2 atmosphere. The following day, the medium was removed and the cells were treated with radiocompounds at concentrations of 100, 50, 25, 12.5 MBq/mL The cells were then incubated for 24, 48, and 72 h. At each specified time point, 20 µL of MTS reagent was added to cells and incubated for 2 h. Absorbance at 490 nm was measured to estimate the percentage of cell metabolic activity. […] The average absorbance of these control wells was subtracted from the absorbance of wells containing treated cells."}, "[2]": {"details": "reported in multiple studies; cited from earlier work"}, "AR42J cells [3]": {"tested_on": "AR42J cells", "assay": "Internalization assay (membrane-bound vs internalized fraction)", "format": "cell-based, rat", "details": "Figure 3", "experimental": "Briefly, AR42J cells (7 × 10^5 cells/well) were seeded in 6-well plates and incubated for 2 days. Following this incubation, the cells were washed twice with cold PBS and then treated with 5 nM of tested compounds. To avoid internalization, the cells were incubated at 4 °C for 1 h. Non-specific binding was assessed by adding a 1000-fold molar excess of unlabeled octreotide acetate. After incubation, unbound fraction was collected in tubes, and the cells were washed twice with 1 mL of cold PBS. Fresh medium was then added, and the cells were incubated at 37 °C for up to 24 h. At each time interval, the second medium portion was collected, and cells were washed twice with 1 mL of PBS. Next, the membrane-bound fraction was collected using 0.05 M glycine–HCl buffer (pH 2.8). Finally, the internalized fraction was obtained by lysing the cells with 1.5 mL of 1 M NaOH."}, "[4]": {"details": "AR42J cells, MTS, 12.5–100 MBq/mL, Figure 4"}}, "note": "Read-outs that look alike come from different tables or passages of the source. Positions of bridges follow the written chain, without caps; N, C: chain ends. Non-standard residues stand in square brackets, D forms with d. dPhe(4-NHCONH2) = NC(=O)Nc1ccc(C[C@@H](N)C(=O)O)cc1; Phe(4-Cl) = N[C@@H](Cc1ccc(Cl)cc1)C(=O)O; N4 = N4 chelator for 99mTc", "data": [{"substance": "N4-p-Cl-Phe-cyclo(D-Cys-Tyr-DAph(Cbm)-Lys-Thr-Cys)-D-Tyr-NH2 (disulfide) [TECANT-1]", "values": [{"measurement": "Specific binding on AR42J cells, antagonist compared with agonist", "setting": "SSTR2", "value": "significantly greater"}, {"measurement": "Cell viability after 72 h compared with earlier time points", "setting": "AR42J cells [1]; [4]", "value": "no such effect was observed"}]}, {"substance": "^99mTc-EDDA/HYNIC-3Tyr-octreotide (disulfide) [^99mTc-TEKTROTYD]", "values": [{"measurement": "Stability in biological fluids, including human serum", "setting": "[2]", "value": "high stability"}, {"measurement": "Cytotoxicity in words", "setting": "AR42J cells [1]; AR42J cells, MTS assay", "value": "slight cytotoxicity"}, {"measurement": "Cell viability after 72 h compared with earlier time points", "setting": "AR42J cells [1]; [4]", "value": "significant increase in cell viability observed after 72 h"}]}, {"substance": "^99mTc-N4-p-Cl-Phe-cyclo(D-Cys-Tyr-D-4-amino-Phe(carbamoyl)-Lys-Thr-Cys)D-Tyr- NH2 (disulfide) ({99mTc-N4}-[Phe(4-Cl)][dC]Y[dPhe(4-NHCONH2)]KTC[dY]-NH2; disulfide 2-7; also: 99mTc complex via N4 chelator) [^99mTc-TECANT-1]", "values": [{"measurement": "Kd", "setting": "SSTR2; saturation curves, AR42J cells, 2 h incubation with 0.004–20 nM radiopeptide, non-specific binding with 2000-fold excess of octreotide, gamma counter", "value": 1.5, "unit": "nM"}]}, {"substance": "^99mTc-N4-p-Cl-Phe-cyclo(D-Cys-Tyr-D-4-amino-Phe(carbamoyl)-Lys-Thr-Cys)D-Tyr- NH2 (disulfide) [^99mTc-TECANT-1]", "values": [{"measurement": "Specific binding on AR42J cells, antagonist compared with agonist", "setting": "SSTR2", "value": "greater binding"}, {"measurement": "Cytotoxicity in words", "setting": "AR42J cells [1]", "value": "significantly enhanced cytotoxic effect"}, {"measurement": "Toxicity of antagonist relative to agonist", "setting": "AR42J cells [1]; AR42J cells, MTS, 12.5–100 MBq/mL, 24, 48, 72 h, Figure 4", "value": "two to three times higher"}, {"measurement": "Cellular localization in words", "setting": "AR42J cells [3]", "value": "most of the radioconjugate is accumulated in the cell membrane"}]}]}
